Reference: patent US11572373B2, “Maytansinoid-based drug delivery systems” (LADRX CORPORATION, priority 2017, dated 2023)

Tested on: cancer cell lines (LXFL 529, RKO, SW-620, CAL-27, LXFL 1674L, MDA-MB 468, SK-OV-3, PAXF 1657, MCF7, COLO 205, MDA-MB 231, BT-474, Hep G2)
Assay: In vitro cytotoxicity in different cell lines using the CellTiter-Blue Cell Viability Assay
Format: cell-based, human
Conditions: geometric mean over the n cell lines tested, 96 h treatment, CellTiter-Blue; read-out: Geomean IC50

Compound	IC50
COc1cc2cc(c1Cl)N(C)C(=O)C[C@H](OC(=O)[C@H](C)N(C)C(=O)CCS)[C@]1(C)O[C@H]1[C@H](C)[C@@H]1C[C@@](O)(NC(=O)O1)[C@H](OC)/C=C/C=C(\C)C2 [DM1, reference compound]	3.22 nM
COc1cc2cc(c1Cl)N(C)C(=O)C[C@H](OC(=O)[C@H](C)N(C)C(=O)CCSSC)[C@]1(C)O[C@H]1[C@H](C)[C@@H]1C[C@@](O)(NC(=O)O1)[C@H](OC)/C=C/C=C(\C)C2 [DM1-SMe, reference compound]	1.3 nM
